This test has as its system 5α-reductase. The test can be described thus: 5α-reductase inhibitory efficacy: DHT produced in testosterone-stimulated dermal papilla cells (DHT ELISA). The class given is cell-based. The settings on record: 50 nM testosterone, 24 hours, produced DHT relative to control. As for the experimental part:
After seeding 1 ml of dermal papilla cells (DPCs) by 5×10^5/ml into each well of a 24-well plate, then incubating the same for 24 hours, each of the reaction products prepared according to procedures described in Examples 1 to 72 was added in amounts of 50 μg/ml, 10 μg/ml and 0 μg/ml, respectively, to individual wells. After 1 hour, the wells were subjected to stimulation using 50 nM testosterone (DMSO dissolved). The supernatant was discarded 24 hours after culturing, to thus obtain DPc pellets. A content of dihydrotestosterone (DHT) (DB52021, Hamburg, Germany) was determined by means of enzyme-linked immune-sorbent assay. DPCs cell pellets were seeded in an amount of 100 μL into each of Dihydrotestosterone (DHT) ELISA microtiter strips coated with rabbit anti-DHT antibody, 25 μL of DHT antiserum was seeded in every well, and subjected to a reaction at 2 to 8° C. for 15 to 20 hours, followed by washing the same three times. Thereafter, 100 μL of DHT-HRP enzyme conjugate was seeded in every well and reacted on a shaker at room temperature for 30 minutes, followed by washing the same three times. Furthermore, 100 μL of substrate was seeded in every well and reacted on a shaker at room temperature for 20 to 30 minutes. Then, the product was treated using 100 μL stop solution, and subjected to measurement of absorbance at 450 nm to express an amount of produced DHT by the absorbance (three times repeated). An amount of produced DHT relative to a control was calculated in terms of an inhibitory rate (%), and results thereof are shown in Table 3 below.
(In general: In an ELISA, binding on a coated surface is turned into a signal by an enzyme label.)

As to `CCCCCCCCOC1CCC2(C)C(=CCC3C2CCC2(C)C(C(C)C=CC(CC)C(C)C)CCC32)C1` (centres unmarked) [Compound in Example 69, O-octyl-stigmasterol], the “5α-reductase inhibitory rate (%)” value by setting is: (sample concentration 10 μg/ml) 19%; (sample concentration 50 μg/ml) 33%.

As for `CC1(C)CC[C@]2(C)CC[C@]3(C)C(=CC[C@@H]4[C@@]5(C)CC[C@H](O)C(C)(C)[C@@H]5CC[C@]43C)[C@@H]2C1` [Compound in Example 1, β-amyrin], the “5α-reductase inhibitory rate (%)” value is, setting by setting: (sample concentration 10 μg/ml) 15%; (sample concentration 50 μg/ml) 28%.

On to `CCCCCCCC(=O)OC1CCC2(C)C(=CCC3C2CCC2(C)C(C(C)CCC(CC)C(C)C)CCC32)C1` (stereo not drawn) [Compound in Example 16, β-sitosterol octanoate], for which the “5α-reductase inhibitory rate (%)” value worked out at 28% (sample concentration 10 μg/ml) and 39% (sample concentration 50 μg/ml).

Turning to `C[C@H]1[C@H](C)CC[C@]2(C(=O)O)CC[C@]3(C)C(=CC[C@@H]4[C@@]5(C)CC[C@H](O)C(C)(C)[C@@H]5CC[C@]43C)[C@H]12` [Compound in Example 18, ursolic acid], the “5α-reductase inhibitory rate (%)” value was 16% (sample concentration 10 μg/ml) and 29% (sample concentration 50 μg/ml).

`CCCCCCCCOC1CCC2(C)C(=CCC3C2CCC2(C)C(C(C)CCC(CC)C(C)C)CCC32)C1` (stereo not drawn) [Compound in Example 57, O-octyl-β-sitosterol]: the “5α-reductase inhibitory rate (%)” value by setting is: (sample concentration 10 μg/ml) 21%; (sample concentration 50 μg/ml) 41%.

As to `CCCCCCCCCCCCCCCCCC(=O)O[C@H]1CC[C@@]2(C)C(=CC[C@H]3[C@@H]4CC[C@H]([C@H](C)/C=C/[C@@H](CC)C(C)C)[C@@]4(C)CC[C@@H]32)C1` [Compound in Example 43, Stigmasterol stearate], the “5α-reductase inhibitory rate (%)” value reads like this: (sample concentration 10 μg/ml) 31%; (sample concentration 50 μg/ml) 41%.

For the compound `CC1(C)CC[C@]2(C)CC[C@]3(C)C(=CC[C@@H]4[C@@]5(C)CC[C@@H](O)[C@](C)(C(=O)O)[C@@H]5CC[C@]43C)[C@@H]2C1` [Compound in Example 26, α-boswellic acid], the “5α-reductase inhibitory rate (%)” value was determined as 10% (sample concentration 10 μg/ml) and 19% (sample concentration 50 μg/ml).

As to “O-dodecyl-β-amyrin [Compound in Example 53]”, the “5α-reductase inhibitory rate (%)” value (sample concentration 10 μg/ml) is on record as 31% and the “5α-reductase inhibitory rate (%)” value (sample concentration 50 μg/ml) is given as 41%.

Take `C/C=C(\CC[C@@H](C)[C@H]1CC[C@H]2[C@@H]3CC=C4C[C@@H](OCCCCCCCC)CC[C@]4(C)[C@H]3CC[C@]12C)C(C)C` [Compound in Example 72, O-octyl-fucosterol]: the “5α-reductase inhibitory rate (%)” value amounted to 19% (sample concentration 10 μg/ml) and 35% (sample concentration 50 μg/ml).

Regarding “fucosterol stearate [Compound in Example 49]”, the “5α-reductase inhibitory rate (%)” value reads like this: (sample concentration 10 μg/ml) 25%; (sample concentration 50 μg/ml) 41%.

Turning to “α-boswellic acid stearate [Compound in Example 28]”, the “5α-reductase inhibitory rate (%)” value is 37% (sample concentration 10 μg/ml) and 51% (sample concentration 50 μg/ml).

Consider `CC(=O)O[C@H]1CC[C@]2(C)[C@H]3CC=C4[C@@H]5CC(C)(C)CC[C@]5(C)CC[C@@]4(C)[C@]3(C)CC[C@H]2C1(C)C` [Compound in Example 2, β-amyrin acetate], for which the “5α-reductase inhibitory rate (%)” value runs as follows: (sample concentration 10 μg/ml) 21%; (sample concentration 50 μg/ml) 34%.

For the compound “oleanolic acid acetate [Compound in Example 23]”, the “5α-reductase inhibitory rate (%)” value came to 11% (sample concentration 10 μg/ml) and 23% (sample concentration 50 μg/ml).

With `CC(C)CCC[C@@H](C)[C@H]1CC[C@H]2[C@@H]3CC=C4C[C@@H](O)CC[C@]4(C)[C@H]3CC[C@]12C` [Compound in Example 40, cholesterol], the “5α-reductase inhibitory rate (%)” value came to 15% (sample concentration 10 μg/ml) and 17% (sample concentration 50 μg/ml).

Consider “β-amyrin laurate [Compound in Example 6]”, for which the “5α-reductase inhibitory rate (%)” value is, setting by setting: (sample concentration 10 μg/ml) 43%; (sample concentration 50 μg/ml) 59%.

Regarding “β-boswellic acid stearate [Compound in Example 31]”, the “5α-reductase inhibitory rate (%)” value by setting is: (sample concentration 10 μg/ml) 31%; (sample concentration 50 μg/ml) 47%.

In the case of `CCCCCCCCCCCCCCCC(=O)O[C@H]1CC[C@]2(C)[C@H]3CC=C4[C@@H]5CC(C)(C)CC[C@]5(C)CC[C@@]4(C)[C@]3(C)CC[C@H]2C1(C)C` [Compound in Example 7, β-amyrin palmitate], the “5α-reductase inhibitory rate (%)” value was found to be 53% (sample concentration 10 μg/ml) and 67% (sample concentration 50 μg/ml).

Consider `CCCCCCCCOC1CCC2(C)C(CCC3(C)C2CC=C2C4CC(C)(C)CCC4(C(=O)O)CCC23C)C1(C)C` (centres unmarked) [Compound in Example 61, O-octyl-oleanolic acid], for which the “5α-reductase inhibitory rate (%)” value runs as follows: (sample concentration 10 μg/ml) 22%; (sample concentration 50 μg/ml) 37%.

Consider “desmosterol stearate [Compound in Example 39]”, for which the “5α-reductase inhibitory rate (%)” value was found to be 26% (sample concentration 10 μg/ml) and 41% (sample concentration 50 μg/ml).

Consider `CC[C@H](CC[C@@H](C)[C@H]1CC[C@H]2[C@@H]3CC=C4C[C@@H](O)CC[C@]4(C)[C@H]3CC[C@]12C)C(C)C` [Compound in Example 14, β-sitosterol], for which the “5α-reductase inhibitory rate (%)” value is 11% (sample concentration 10 μg/ml) and 26% (sample concentration 50 μg/ml).

Take `CCCCC(CC)C(=O)OC1CCC2(C)C(CCC3(C)C2CC=C2C4CC(C)(C)CCC4(C)CCC23C)C1(C)C` (stereo not drawn) [Compound in Example 4, β-amyrin 2-ethylhexanoate]: the “5α-reductase inhibitory rate (%)” value runs as follows: (sample concentration 10 μg/ml) 36%; (sample concentration 50 μg/ml) 54%.

As to `CCCCCOC1CCC2(C)C(CCC3(C)C2CC=C2C4CC(C)(C)CCC4(C)CCC23C)C1(C)C` (stereo not drawn) [Compound in Example 51, O-pentyl-β-amyrin], the “5α-reductase inhibitory rate (%)” value was found to be 22% (sample concentration 10 μg/ml) and 38% (sample concentration 50 μg/ml).

Take `CC1(C)[C@@H](O)CC[C@]2(C)[C@H]3C(=O)C=C4[C@@H]5C[C@@](C)(C(=O)O)CC[C@]5(C)CC[C@@]4(C)[C@]3(C)CC[C@@H]12` [Compound in Example 34, glycyrrhetinic acid]: the “5α-reductase inhibitory rate (%)” value runs as follows: (sample concentration 10 μg/ml) 6%; (sample concentration 50 μg/ml) 18%.

As to `CC(C)=CCC[C@@H](C)[C@H]1CC[C@H]2[C@@H]3CC=C4C[C@@H](O)CC[C@]4(C)[C@H]3CC[C@]12C` [Compound in Example 38, desmosterol], the “5α-reductase inhibitory rate (%)” value (sample concentration 10 μg/ml) is 12% and the “5α-reductase inhibitory rate (%)” value (sample concentration 50 μg/ml) is 31%.

Regarding `C[C@H]1[C@H](C)CC[C@]2(C)CC[C@]3(C)C(=CC[C@@H]4[C@@]5(C)CC[C@@H](O)[C@](C)(C(=O)O)[C@@H]5CC[C@]43C)[C@H]12` [Compound in Example 29, β-boswellic acid], the “5α-reductase inhibitory rate (%)” value reads like this: (sample concentration 10 μg/ml) 11%; (sample concentration 50 μg/ml) 23%.

On to `CCCCCCCCOC1CCC2(C)C(CCC3(C)C2C(=O)C=C2C4CC(C)(C(=O)O)CCC4(C)CCC23C)C1(C)C` (centres unmarked) [Compound in Example 66, O-octyl-glycyrrhetinic acid], for which the “5α-reductase inhibitory rate (%)” value runs as follows: (sample concentration 10 μg/ml) 33%; (sample concentration 50 μg/ml) 51%.

For `CCCCCCCCOC1CCC2(C)C(CCC3(C)C2CC=C2C4CC(C)(C)CCC4(C)CCC23C)C1(C)C` (stereo not drawn) [Compound in Example 52, O-octyl-β-amyrin], the “5α-reductase inhibitory rate (%)” value runs as follows: (sample concentration 10 μg/ml) 28%; (sample concentration 50 μg/ml) 43%.

For the compound `CCCCCCCCOC1CCC2(C)C(CCC3(C)C2CC=C2C4C(C)C(C)CCC4(C)CCC23C)C1(C)C` (stereo not drawn) [Compound in Example 55, O-octyl-α-amyrin], the “5α-reductase inhibitory rate (%)” value runs as follows: (sample concentration 10 μg/ml) 24%; (sample concentration 50 μg/ml) 38%.

For the compound “oleanolic acid stearate [Compound in Example 25]”, the “5α-reductase inhibitory rate (%)” value by setting is: (sample concentration 10 μg/ml) 35%; (sample concentration 50 μg/ml) 41%.

With `CC[C@H](/C=C/[C@@H](C)[C@H]1CC[C@H]2[C@@H]3CC=C4C[C@@H](O)CC[C@]4(C)[C@H]3CC[C@]12C)C(C)C` [Compound in Example 42, Stigmasterol], the “5α-reductase inhibitory rate (%)” value runs as follows: (sample concentration 10 μg/ml) 8%; (sample concentration 50 μg/ml) 24%.

As for `CC(=O)OC1CCC2(C)C(CCC3(C)C2CC=C2C4CC(C)(C)CCC4(C)CCC23C)C1(C)C(=O)O` (stereo not drawn) [Compound in Example 27, α-boswellic acid acetate], the “5α-reductase inhibitory rate (%)” value (sample concentration 10 μg/ml) is recorded as 21% and the “5α-reductase inhibitory rate (%)” value (sample concentration 50 μg/ml) is 29%.

In the case of `CCCCCCCCOC1CCC2(C)C(CCC3(C)C2CC=C2C4C(C)C(C)CCC4(C(=O)O)CCC23C)C1(C)C` (centres unmarked) [Compound in Example 59, O-octyl-ursolic acid], the “5α-reductase inhibitory rate (%)” value reads like this: (sample concentration 10 μg/ml) 22%; (sample concentration 50 μg/ml) 41%.

With “glycyrrhetinic acid stearate [Compound in Example 35]”, the “5α-reductase inhibitory rate (%)” value is 24% (sample concentration 10 μg/ml) and 39% (sample concentration 50 μg/ml).

For the compound `CCCCCCCCOC1CCC2(C)C(=CCC3C2CCC2(C)C(C(C)CCC(C)C(C)C)CCC32)C1` (centres unmarked) [Compound in Example 70, O-octyl-campesterol], the “5α-reductase inhibitory rate (%)” value is, setting by setting: (sample concentration 10 μg/ml) 28%; (sample concentration 50 μg/ml) 51%.

These data come from US20150246058A1, “COMPOSITION FOR PREVENTING HAIR LOSS AND ACCELERATING HAIR GROWTH” (RNS CO., LTD., priority 2012, published 2015).
